What was measured:
Assay in all cases: Cell proliferation panel (CellTiter-Glo 2.0, 5 days)
Type in all cases: cell-based
[1] = tested on: A549; conditions: Lung carcinoma, NSCLC
Protocol: (§1) Cell proliferation assay was carried out in a panel of 108 cell lines. 1000 (attached cells) or 3000 (suspension cells) cells/100 μl per well were seeded in 96 well black plate with a clear bottom (Corning #3904). Compounds were added using Tecan D300e Digital Dispenser in 1:3 titration for 9 doses. Plates were incubated for 5 days at 37° C. and 5% CO2. Cell proliferation was measured using CellTiter-Glo 2.0 luciferase-based ATP detection assay (Promega, Madison, WI) at 50 μl per well following the manufacturer's protocol. Plates were then read on a TECAN Sparks multimode microplate reader. Data was analyzed using GraphPad Prism 9 (GraphPad Software, San Diego, CA) to obtain IC50 values. IC50 values were determined using Prism software (GraphPad Software, San Diego, CA).

[2] = tested on: AGS; conditions: Gastric adenocarcinoma
Protocol: as §1

[3] = tested on: ASPC1; conditions: Pancreatic adenocarcinoma
Protocol: as §1

[4] = tested on: BJ; conditions: Skin fibroblast
Protocol: as §1

[5] = tested on: BT-474; conditions: Mammary gland ductal carcinoma
Protocol: as §1

[6] = tested on: CAPAN2; conditions: Pancreatic adenocarcinoma
Protocol: as §1

[7] = tested on: CHP-212; conditions: Neuroblastoma
Protocol: as §1

[8] = tested on: CT26; conditions: Murine colon carcinoma fibroblasts
Protocol: as §1

[9] = tested on: Caki-2; conditions: Kidney clear cell carcinoma
Protocol: as §1

[10] = tested on: GP2D; conditions: Colon adenocarcinoma
Protocol: as §1

[11] = tested on: H2087; conditions: Lung adenocarcinoma NSCLC
Protocol: as §1

[12] = tested on: H211; conditions: Small cell lung carcinoma
Protocol: as §1

[13] = tested on: H2122; conditions: Lung adenocarcinoma NSCLC
Protocol: as §1

[14] = tested on: H2228; conditions: Lung adenocarcinoma, NSCLC
Protocol: as §1

[15] = tested on: H2291; conditions: Lung adenocarcinoma NSCLC
Protocol: as §1

[16] = tested on: H441; conditions: Lung adenocarcinoma NSCLC
Protocol: as §1

[17] = tested on: HCC1419
Protocol: as §1

[18] = tested on: HCC1569; conditions: Mammary gland metaplastic carcinoma
Protocol: as §1

[19] = tested on: HCC38; conditions: Mammary gland ductal carcinoma
Protocol: as §1

[20] = tested on: HCC78; conditions: Non-small cell lung carcinoma
Protocol: as §1

[21] = tested on: Hs746T; conditions: Gastric carcinoma
Protocol: as §1

[22] = tested on: KASUMI-4; conditions: Chronic Myeloblastic Leukemia
Protocol: as §1

[23] = tested on: KCL22R; conditions: Chronic Myelogenous Leukemia
Protocol: as §1

[24] = tested on: KCL22S; conditions: Chronic myeloid leukemia at blast crisis
Protocol: as §1

[25] = tested on: Kelly; conditions: Neuroblastoma
Protocol: as §1

[26] = tested on: MC38; conditions: Murine colon adenocarcinoma
Protocol: as §1

[27] = tested on: MOLM-1; conditions: Chronic myeloid leukemia
Protocol: as §1

[28] = tested on: MOLM13; conditions: Acute myeloid leukemia
Protocol: as §1

[29] = tested on: N87; conditions: Gastric carcinoma
Protocol: as §1

[30] = tested on: NB-1; conditions: Neuroblastoma
Protocol: as §1

[31] = tested on: Ovcar3; conditions: Ovarian adenocarcinoma
Protocol: as §1

[32] = tested on: PANC0403; conditions: Pancreatic adenocarcinoma
Protocol: as §1

[33] = tested on: PANC0504; conditions: Pancreatic carcinoma
Protocol: as §1

[34] = tested on: PANC1; conditions: Pancreatic ductal epithelioid carcinoma
Protocol: as §1

[35] = tested on: PC-9; conditions: Lung adenocarcinoma NSCLC
Protocol: as §1

[36] = tested on: SK-BR-3; conditions: Breast adenocarcinoma
Protocol: as §1

[37] = tested on: SK-LU-1; conditions: Lung adenocarcinoma NSCLC
Protocol: as §1

[38] = tested on: SK-N-AS; conditions: Neuroblastoma
Protocol: as §1

[39] = tested on: SK-N-SH; conditions: Neuroblastoma
Protocol: as §1

[40] = tested on: SW403; conditions: Colorectal adenocarcinoma
Protocol: as §1

[41] = tested on: SW620; conditions: Colorectal adenocarcinoma
Protocol: as §1

[42] = tested on: TOV-112D; conditions: Endometrioid ovarian cancer
Protocol: as §1

[43] = tested on: Toledo; conditions: Diffuse Large B Cell Lymphoma
Protocol: as §1

[44] = tested on: U118-MG; conditions: Brain glioblastoma
Protocol: as §1

[45] = tested on: UCSD-AML1; conditions: Acute myeloid leukemia
Protocol: as §1

[46] = tested on: ZR-75-1; conditions: Mammary gland ductal carcinoma
Protocol: as §1

CCc1nn(C)c2c1/C=C/c1n[nH]c3ccc(cc13)-c1cnn(C)c1OCCN(C)C2=O [Ex. 6, (17E)-16-ethyl-8,12,14-trimethyl-2,11,12,14-tetrahydro-8H-3,5-ethenotripyrazolo[3,4-f:3′,4′-j:4″,3″-n][1,4]oxazacyclopentadecin-13(10H)-one]
IC50 [1]: 67.7 nM | IC50 [2]: 87.9 nM | IC50 [3]: 241 nM | IC50 [4]: 516 nM | IC50 [5]: 278 nM | IC50 [6]: 365 nM | IC50 [7]: 27.4 nM | IC50 [8]: 215 nM | IC50 [9]: 142 nM | IC50 [10]: 121 nM | IC50 [11]: 141 nM | IC50 [12]: 105 nM | IC50 [13]: 73.7 nM | IC50 [14]: 118 nM | IC50 [15]: 362 nM | IC50 [16]: 91.1 nM | IC50 [17]: 83.8 nM | IC50 [18]: 151 nM | IC50 [19]: 161 nM | IC50 [20]: 42.7 nM | IC50 [21]: 183 nM | IC50 [22]: 11.2 nM | IC50 [23]: 64.8 nM | IC50 [24]: 61.2 nM | IC50 [25]: 51.5 nM | IC50 [26]: 217 nM | IC50 [27]: 80.5 nM | IC50 [28]: 2.39 nM | IC50 [29]: 20.8 nM | IC50 [30]: 45 nM | IC50 [31]: 70.7 nM | IC50 [32]: 220 nM | IC50 [33]: 82.2 nM | IC50 [34]: 213 nM | IC50 [35]: 164 nM | IC50 [36]: 38.8 nM | IC50 [37]: 166 nM | IC50 [38]: 77.2 nM | IC50 [39]: 21.7 nM | IC50 [40]: 18 nM | IC50 [41]: 76.5 nM | IC50 [42]: 62.5 nM | IC50 [43]: 34.6 nM | IC50 [44]: 310 nM | IC50 [45]: 15.5 nM | IC50 [46]: 144 nM

Source: patent US20260070924A1, “INDAZOLE MACROCYCLES AND THEIR USE” (BLOSSOMHILL THERAPEUTICS, INC., priority 2022, published 2026)
